According to publication PMC11620503 (Antimicrobial Agents and Chemotherapy, 2024):
In brackets after ≈: the same amount, converted by molar mass. Where two headings read alike, the source gives them in different places.

Assays:
[1] = system: Staphylococcus aureus ATCC 6538P/methicillin-sensitive; assay: MIC, reference strains of aerobic bacteria; type: cell-based; details: ATCC6538P
[2] = system: Staphylococcus aureus KUB4690/methicillin-resistant; assay: MIC, reference strains of aerobic bacteria; type: cell-based
[3] = system: Staphylococcus epidermidis KUB4871/methicillin-sensitive; assay: MIC, reference strains of aerobic bacteria; type: cell-based
[4] = system: Staphylococcus epidermidis KUB4862/methicillin-resistant; assay: MIC, reference strains of aerobic bacteria; type: cell-based
[5] = system: Enterococcus faecalis ATCC 29212; assay: MIC, reference strains of aerobic bacteria; type: cell-based; details: ATCC29212
[6] = system: Enterococcus faecium NCTC 12204; assay: MIC, reference strains of aerobic bacteria; type: cell-based; details: NCTC12204
[7] = system: Streptococcus pneumoniae ATCC 49619; assay: MIC, reference strains of aerobic bacteria; type: cell-based; details: ATCC49619
[8] = system: Streptococcus agalactiae ATCC 13813; assay: MIC, reference strains of aerobic bacteria; type: cell-based; details: ATCC13813
[9] = system: Streptococcus mitis GTC495 (ATCC 49456); assay: MIC, reference strains of aerobic bacteria; type: cell-based; details: ATCC49456
[10] = system: Streptococcus mutans GTC218; assay: MIC, reference strains of aerobic bacteria; type: cell-based
[11] = system: Streptococcus porcinus ATCC 12391; assay: MIC, reference strains of aerobic bacteria; type: cell-based; details: ATCC12391
[12] = system: Streptococcus salivarius GTC215; assay: MIC, reference strains of aerobic bacteria; type: cell-based
[13] = system: Escherichia coli ATCC 25922; assay: MIC, reference strains of aerobic bacteria; type: cell-based; details: ATCC25922
[14] = system: Klebsiella oxytoca KUB4313; assay: MIC, reference strains of aerobic bacteria; type: cell-based
[15] = system: Acinetobacter calcoaceticus NBRC12552 (ATCC 14987); assay: MIC, reference strains of aerobic bacteria; type: cell-based
[16] = system: Stenotrophomonas maltophilia KUB3619; assay: MIC, reference strains of aerobic bacteria; type: cell-based
[17] = system: Pseudomonas aeruginosa ATCC 27853; assay: MIC, reference strains of aerobic bacteria; type: cell-based; details: ATCC27853
[18] = system: Providencia rettgeri ATCC 9250; assay: MIC, reference strains of aerobic bacteria; type: cell-based; details: ATCC9250
[19] = system: Proteus mirabilis NBRC 3849 (NCTC 6197); assay: MIC, reference strains of aerobic bacteria; type: cell-based
[20] = system: Proteus vulgaris ATCC 6380; assay: MIC, reference strains of aerobic bacteria; type: cell-based; details: ATCC6380
[21] = system: Moraxella catarrhalis ATCC 25238; assay: MIC, reference strains of aerobic bacteria; type: cell-based; details: ATCC25238
[22] = system: 207 Enterobacterales including carbapenem-resistant isolates; assay: MIC, broth microdilution; type: cell-based
[23] = system: MEM-nonsusceptible Enterobacterales; assay: MIC, broth microdilution; type: cell-based; details: for CLSI MIC interpretation I (intermediate) / CLSI MIC interpretation R (resistant) / CLSI MIC interpretation S (susceptible): CLSI breakpoints, marked c: breakpoints for β-lactam alone; for MIC50 / MIC90: fixed concentration (μg/mL) in label
[24] = system: serine-carbapenemase-producing isolates (Enterobacterales); assay: MIC, broth microdilution; type: cell-based; details: for MIC50 / MIC90: fixed concentration (μg/mL) in label
[25] = system: MBL-producing isolates (Enterobacterales); assay: MIC, broth microdilution; type: cell-based; details: for MIC50 / MIC90: fixed concentration (μg/mL) in label; for MIC50: read-out: MIC50; for MIC90: read-out: MIC90
[26] = system: 55 isolates of A. baumannii; assay: MIC, broth microdilution; type: cell-based, Acinetobacter baumannii
96 P. aeruginosa = assay: MIC, broth microdilution; type: cell-based, Pseudomonas aeruginosa
[27] = system: E. coli CDC-137 (NDM-6), PBP3 mutations; assay: MIC, broth microdilution; type: cell-based; details: Escherichia coli, fixed BLI concentration (μg/mL) in parentheses in label
[28] = system: E. coli CDC-151 (NDM-5), PBP3 mutations; assay: MIC, broth microdilution; type: cell-based; details: Escherichia coli, fixed BLI concentration (μg/mL) in parentheses in label
[29] = system: MEM-nonsusceptible Enterobacterales with metallo-carbapenemases; assay: MIC, broth microdilution; type: cell-based; details: for CLSI MIC interpretation I (intermediate) / CLSI MIC interpretation R (resistant) / CLSI MIC interpretation S (susceptible): CLSI breakpoints, marked c: breakpoints for β-lactam alone; for MIC50 / MIC90: fixed concentration (μg/mL) in label
[30] = All Enterobacterales (207), cefiderocol 205 isolates, CLSI breakpoints, marked c: breakpoints for β-lactam alone, tigecycline: FDA breakpoints
[31] = All Enterobacterales (207), cefiderocol 205 isolates, fixed concentration (μg/mL) in label
[32] = MEM-nonsusceptible Enterobacterales (92), CDC AR Bank
[33] = MEM-nonsusceptible Enterobacterales (127), cefiderocol 126 isolates, tigecycline: FDA breakpoints
[34] = Enterobacterales with serine-carbapenemases (61), CDC AR Bank, CLSI breakpoints, marked c: breakpoints for β-lactam alone
[35] = Enterobacterales with serine-carbapenemases (61), CDC AR Bank
[36] = Enterobacterales with serine-carbapenemases (80), CLSI breakpoints, marked c: breakpoints for β-lactam alone, tigecycline: FDA breakpoints
[37] = Enterobacterales with metallo-carbapenemases (47), CDC AR Bank, CLSI breakpoints, marked c: breakpoints for β-lactam alone
[38] = Enterobacterales with metallo-carbapenemases (47), CDC AR Bank
[39] = Enterobacterales with metallo-carbapenemases (74), cefiderocol 73 isolates, CLSI breakpoints, marked c: breakpoints for β-lactam alone, tigecycline: FDA breakpoints
[40] = Enterobacterales with metallo-carbapenemases (74), cefiderocol 73 isolates
[41] = Acinetobacter baumannii (55), CLSI breakpoints, marked c: breakpoints for β-lactam alone
[42] = Pseudomonas aeruginosa (96), CLSI breakpoints, marked c: breakpoints for β-lactam alone
[43] = MEM-nonsusceptible Enterobacterales with metallo-carbapenemases (41), CDC AR Bank
[44] = MEM-nonsusceptible Enterobacterales with metallo-carbapenemases (55), cefiderocol 54 isolates, tigecycline: FDA breakpoints

Compound: N[C@@H](C(=O)N1CC(Oc2ccc3c(c2C(=O)O)OB(O)CC3)C1)c1c[nH]cn1 [KSP-1007, 7-({1-[(2R)-2-amino-2-(1H-imidazol-4-yl)acetyl]azetidin-3-yl}oxy)-2-hydroxy-3,4-dihydro-2H-1,2-benzoxaborinine-8-carboxylic acid]
- MIC [1]: 8 µg/mL (≈ 20.7 µM)
- MIC [2]: > 128 µg/mL
- MIC [3]: 4 µg/mL (≈ 10.4 µM)
- MIC [4]: > 128 µg/mL
- MIC [5]: 64 µg/mL (≈ 166 µM)
- MIC [6]: > 128 µg/mL
- MIC [7]: 2 µg/mL (≈ 5.18 µM)
- MIC [8]: 4 µg/mL (≈ 10.4 µM)
- MIC [9]: 4 µg/mL (≈ 10.4 µM)
- MIC [10]: 8 µg/mL (≈ 20.7 µM)
- MIC [11]: 2 µg/mL (≈ 5.18 µM)
- MIC [12]: 0.25 µg/mL (≈ 0.647 µM)
- MIC [13]: 128 µg/mL (≈ 331 µM)
- MIC [14]: 128 µg/mL (≈ 331 µM)
- MIC [15]: > 128 µg/mL
- MIC [16]: > 128 µg/mL
- MIC [17]: > 128 µg/mL
- MIC [18]: > 128 µg/mL
- MIC [19]: > 128 µg/mL
- MIC [20]: > 128 µg/mL
- MIC [21]: 64 µg/mL (≈ 166 µM)

Compound: C[C@@H](O)[C@H]1C(=O)N2C(C(=O)O)=C(S[C@@H]3CN[C@H](C(=O)N(C)C)C3)[C@H](C)[C@H]12 [MEM, meropenem]
- CLSI MIC interpretation I (intermediate) [22, 30]: 11.1%
- CLSI MIC interpretation R (resistant) [22, 30]: 50.2%
- CLSI MIC interpretation S (susceptible) [22, 30]: 38.6%
- MIC50 [22, 31]: 4 µg/mL (≈ 10.4 µM)
- MIC90 [22, 31]: 32 µg/mL (≈ 83.4 µM)
- MIC50 ([22]; read-out: MIC50): 4 µg/mL (≈ 10.4 µM)
- MIC90 ([22]; read-out: MIC90): 32 µg/mL (≈ 83.4 µM)
- CLSI MIC interpretation I (intermediate) [23, 32]: 16.3%
- CLSI MIC interpretation R (resistant) [23, 32]: 83.7%
- CLSI MIC interpretation S (susceptible) [23, 32]: 0%
- MIC50 [23, 32]: 8 µg/mL (≈ 20.9 µM)
- MIC90 [23, 32]: >32 µg/mL
- CLSI MIC interpretation I (intermediate) [23, 33]: 18.1%
- CLSI MIC interpretation R (resistant) [23, 33]: 81.9%
- CLSI MIC interpretation S (susceptible) [23, 33]: 0%
- MIC50 ([23]; MEM-nonsusceptible Enterobacterales (127), cefiderocol 126 isolates, read-out: MIC50): 8 µg/mL (≈ 20.9 µM)
- MIC90 ([23]; MEM-nonsusceptible Enterobacterales (127), cefiderocol 126 isolates, read-out: MIC90): > 32 µg/mL
- CLSI MIC interpretation R (resistant) [24, 34]: 57.4%
- CLSI MIC interpretation S (susceptible) [24, 34]: 31.1%
- MIC50 [24, 35]: 4 µg/mL (≈ 10.4 µM)
- MIC90 [24, 35]: 32 µg/mL (≈ 83.4 µM)
- CLSI MIC interpretation I (intermediate) [24, 36]: 11.3%
- CLSI MIC interpretation R (resistant) [24, 36]: 61.3%
- CLSI MIC interpretation S (susceptible) [24, 36]: 27.5%
- MIC50 ([24]; Enterobacterales with serine-carbapenemases (80), read-out: MIC50): 4 µg/mL (≈ 10.4 µM)
- MIC90 ([24]; Enterobacterales with serine-carbapenemases (80), read-out: MIC90): 32 µg/mL (≈ 83.4 µM)
- CLSI MIC interpretation I (intermediate) [25, 37]: 10.6%
- CLSI MIC interpretation R (resistant) [25, 37]: 76.6%
- MIC50 [25, 38]: 16 µg/mL (≈ 41.7 µM)
- MIC90 [25, 38]: > 32 µg/mL
- CLSI MIC interpretation I (intermediate) [25, 39]: 9.5%
- CLSI MIC interpretation R (resistant) [25, 39]: 64.9%
- CLSI MIC interpretation S (susceptible) [25, 39]: 25.7%
- MIC50 [25, 40]: 8 µg/mL (≈ 20.9 µM)
- MIC90 [25, 40]: > 32 µg/mL
- CLSI MIC interpretation I (intermediate) [26, 41]: 5.5%
- CLSI MIC interpretation R (resistant) [26, 41]: 89.1%
- CLSI MIC interpretation S (susceptible) [26, 41]: 5.5%
- MIC50 ([26]; Acinetobacter baumannii (55), fixed concentration (μg/mL) in label): 32 µg/mL (≈ 83.4 µM)
- MIC50 ([26]; Acinetobacter baumannii, read-out: MIC50): 32 µg/mL (≈ 83.4 µM)
- CLSI MIC interpretation I (intermediate) (96 P. aeruginosa; [42]): 11.5%
- CLSI MIC interpretation R (resistant) (96 P. aeruginosa; [42]): 67.7%
- CLSI MIC interpretation S (susceptible) (96 P. aeruginosa; [42]): 20.8%
- MIC50 (96 P. aeruginosa; Pseudomonas aeruginosa (96), fixed concentration (μg/mL) in label): 16 µg/mL (≈ 41.7 µM)
- MIC50 (96 P. aeruginosa; Pseudomonas aeruginosa, read-out: MIC50): 16 µg/mL (≈ 41.7 µM)
- MIC [27]: 32 µg/mL (≈ 83.4 µM)
- MIC [28]: 8 µg/mL (≈ 20.9 µM)
- MIC [1]: 0.06 µg/mL (≈ 0.156 µM)
- MIC [2]: 32 µg/mL (≈ 83.4 µM)
- MIC [3]: 0.06 µg/mL (≈ 0.156 µM)
- MIC [4]: 4 µg/mL (≈ 10.4 µM)
- MIC [5]: 1 µg/mL (≈ 2.61 µM)
- MIC [6]: 32 µg/mL (≈ 83.4 µM)
- MIC [7]: 0.06 µg/mL (≈ 0.156 µM)
- MIC [8]: ≤ 0.03 µg/mL
- MIC [9]: ≤ 0.03 µg/mL
- MIC [10]: ≤ 0.03 µg/mL
- MIC [11]: ≤ 0.03 µg/mL
- MIC [12]: ≤ 0.03 µg/mL
- MIC [13]: ≤ 0.03 µg/mL
- MIC [14]: ≤ 0.03 µg/mL
- MIC [15]: 0.12 µg/mL (≈ 0.313 µM)
- MIC [16]: > 32 µg/mL
- MIC [17]: 0.25 µg/mL (≈ 0.652 µM)
- MIC [18]: 0.06 µg/mL (≈ 0.156 µM)
- MIC [19]: ≤ 0.03 µg/mL
- MIC [20]: ≤ 0.03 µg/mL
- MIC [21]: ≤ 0.03 µg/mL
- CLSI MIC interpretation I (intermediate) [29, 43]: 12.2%
- CLSI MIC interpretation R (resistant) [29, 43]: 87.8%
- CLSI MIC interpretation S (susceptible) [29, 43]: 0%
- MIC50 [29, 43]: 16 µg/mL (≈ 41.7 µM)
- MIC90 [29, 43]: >32 µg/mL
- CLSI MIC interpretation I (intermediate) [29, 44]: 12.7%
- CLSI MIC interpretation R (resistant) [29, 44]: 87.3%
- CLSI MIC interpretation S (susceptible) [29, 44]: 0%
- MIC50 ([29]; MEM-nonsusceptible Enterobacterales with metallo-carbapenemases (55), cefiderocol 54 isolates, read-out: MIC50): 16 µg/mL (≈ 41.7 µM)
- MIC90 ([29]; MEM-nonsusceptible Enterobacterales with metallo-carbapenemases (55), cefiderocol 54 isolates, read-out: MIC90): > 32 µg/mL
